Measurements reported in US6783966B1 (priority 2000, dated 2004).

Molecular target: T1, α1,4 Gal-T (Homo sapiens, UniProt Q9NPC4)
T1 sequence (Q9NPC4 1-353): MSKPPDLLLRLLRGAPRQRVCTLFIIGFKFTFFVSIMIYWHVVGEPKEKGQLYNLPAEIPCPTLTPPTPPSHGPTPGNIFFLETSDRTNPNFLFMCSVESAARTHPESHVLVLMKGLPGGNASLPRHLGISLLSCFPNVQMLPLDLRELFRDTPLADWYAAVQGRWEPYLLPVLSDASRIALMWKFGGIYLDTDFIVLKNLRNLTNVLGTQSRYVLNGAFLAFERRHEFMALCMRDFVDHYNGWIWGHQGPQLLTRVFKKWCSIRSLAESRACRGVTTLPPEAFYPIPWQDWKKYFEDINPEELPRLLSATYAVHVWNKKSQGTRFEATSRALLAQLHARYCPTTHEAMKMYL
Experiment: Enzyme assay of α1,4 Gal-T in membrane fraction of transfected L cells
Details: for Km: acceptor substrate of α1,4 Gal-T, donor UDP-Gal; for significant levels of [14C] galactose incorporation (acceptor): potential acceptors, FIG. 4B
Experimental: The enzyme activity of α1,4 Gal-T in the membrane fraction was measured as descibed previously(ref.4). The reaction mixture for the assay contained the following in a volume of 50 μl:50 mM sodium cacodylate-HCl (pH 6.0), 10 mM MgCl2, 5 mM galactonolactone (Sigma), 0.3% Triton X-100 (Sigma), 0.4 mM (LacCer), 2.9 mM phosphatidylglycerol (Sigma), 0.2 mM UDP-Gal (Sigma), UDP-[^14C] Gal (2.5×10^5 dpm) (NEN), and membrane fraction containing 50 μg protein. The protein concentration was determined by Lowry's methods(ref.20). The products was isolated by a C18 Sep-Pak cartridge (Waters, Milford, Mass.) and analyzed by thin layer chromatography (TLC) and autoradiography using a Bio-Imaging Analyzer BAS2000 (Fuji Film, Tokyo).
Enzyme activity toward other potential acceptors was also examined (FIG. 4B).

galactosylceramide was tested, and the Km was 132 µM and the “significant levels of [14C] galactose incorporation (acceptor)” value was “significant levels”.

lactosylceramide [LacCer] was tested, and the Km was 54.5 µM and the “significant levels of [14C] galactose incorporation (acceptor)” value was “significant levels”.
